Values of other authors as cited in patent publication US20110195946A1, “HIGH SOLID D[…]” (priority 2008, published 2011).

Columns and labels:
[1] = acute inhalation toxicity
[2] = acute oral mammalian toxicity

| Structure (SMILES) | LC50 (4 h) [1] | LD50 [2] |
| --- | --- | --- |
| [O-][n+]1ccccc1[S][Zn][S]c1cccc[n+]1[O-] [zinc pyrithione, bis(2-pyridylthio)zinc 1,1′ dioxide] | 1.03 µg/mL |  |
| N#Cc1c(-c2ccc(Cl)cc2)[nH]c(C(F)(F)F)c1Br [Tralopyril, 4-bromo-2-(4-chlorophenyl)-5-(trifluoromethyl)-1H-pyrrole-3-carbonitrile] |  | 28.7 mg/kg |
